Laboratory results: EP2574339A1, “Pharmaceutical preparation for treating NADH-related illnesses” (Huber, Johannes, priority 2011, dated 2013)
“Also recorded” adds a separate entry of the source.

Tests used:
menschlichen Zellen [1] = experiment: Mitochondrial NAD+ generation / PAR formation from extracellular precursors with inhibitors, cell line not stated; format: cell-based; details: for Funktion von NMN als extrazellulärer NAD^+-Vorläufer: NMN as precursor in presence of nucleoside transporter inhibitor (2 µM Dipyridamol, 10 µM NBTI); for NR-Nutzung: NR as precursor, nucleoside transporter inhibitor added
menschlichen Zellen [2] = experiment: Cell viability (MTT assay) with extracellular precursors and inhibitors, cell line not stated; format: cell-based
293mitoPARP Zellen [3] = experiment: Cell viability (MTT assay) of 293mitoPARP cells; format: cell-based, menschlichen Zellen; details: for Zell-Überleben: FK866 (2 µM), 100 µM metabolite, 72 h, Fig. 3A
Protocol: (§1) Inhibitoren (2 µM FK866, 2 mM 3-AB, 10 µM NBTI, 2 µM Dipyridamol, 2 mM CMP, 25 µM PPADS, 1 mM Ap4A) oder Metaboliten (100 µM NAD^+, 100 µM NAAD, 100 µM NMN, 100 µM NAMN, 100 µM NA, 100 µM NR) wurden dem Zellkulturmedium zugesetzt, wie angegeben. […] Die Behandlung mit Inhibitoren und Metaboliten wurde für 24-48 h vor der Analyse von PAR Bildung und die Lebensfähigkeit der Zellen durchgeführt (72 h für 293mitoPARP Zellen, 96 h für HeLa S3-Zellen und 120 h für HepG2-Zellen). Die Lebensfähigkeit der Zellen wurde mittels MTT-Assay bestimmt.

293mitoPARP Zellen [4] = experiment: Mitochondrial NAD+ content by PAR formation (mitoPARP) in 293mitoPARP cells; format: cell-based, menschlichen Zellen; details: NamPRT inhibited by FK866 (2 µM), 100 µM metabolite in the medium, Fig. 3A
Protocol: Inhibitoren (2 µM FK866, 2 mM 3-AB, 10 µM NBTI, 2 µM Dipyridamol, 2 mM CMP, 25 µM PPADS, 1 mM Ap4A) oder Metaboliten (100 µM NAD^+, 100 µM NAAD, 100 µM NMN, 100 µM NAMN, 100 µM NA, 100 µM NR) wurden dem Zellkulturmedium zugesetzt, wie angegeben. NR wurde wie beschrieben bereitgestellt (Dölle et al., Anal. Biochem. 385 (2009), 377-379). Die Behandlung mit Inhibitoren und Metaboliten wurde für […] vor der Analyse von PAR Bildung und die Lebensfähigkeit der Zellen durchgeführt (72 h für 293mitoPARP Zellen, 96 h für HeLa S3-Zellen und 120 h für HepG2-Zellen). Die Lebensfähigkeit der Zellen wurde mittels MTT-Assay bestimmt.
Es wurden 293mitoPARP Zellen bereitgestellt, die ein Fusionsprotein exprimieren ("mitoPARP"), bestehend aus EGFP und PARP1cd (poly-ADP-Ribose-Polymerase-1), welches auf die mitochondriale Matrix abgezielt wurde. Mit mitochondrialem NAD^+ als Substrat generieren diese Zellen konstitutiv Protein-gebundenes PAR (Protein-gebundene poly-ADP-Ribose), welches immunchemisch visualisiert wird. Variationen im Umfang der erfassten PAR spiegeln damit Veränderungen des mitochondrialen NAD^+-Gehaltes wider. Ebenso wurde die transiente Expression von mitoPARP in HepG2 und HeLa S3 Zellen verwendet.
Ein PAR-Signal hängt sowohl von der katalytischen Aktivität von mitoPARP als auch von der Anwesenheit von NAD^+ ab. Folglich erlaubt die mitoPARP-Expression die Erkennung von Änderungen im mitochondrialen NAD^+-Gehalt.

HeLa S3-Zellen = experiment: Cell viability (MTT assay) of HeLa S3 cells; format: cell-based, menschlichen Zellen; details: for Überleben: FK866 (2 µM), 100 µM metabolite, 96 h, Fig. 3B
Protocol: as §1

HeLa S3 Zellen = experiment: Mitochondrial NAD+ content by PAR formation (transient mitoPARP) in HeLa S3 cells; format: cell-based, menschlichen Zellen; details: FK866 (2 µM), 100 µM metabolite, Fig. 3B
[5] = extracellular NR (100 µM), b59: in Gegenwart von CMP, Fig. 4B
[6] = NAD^+ as extracellular precursor, inhibitor added (25 µM PPADS), cell line not stated
[7] = NMN as precursor, 2 mM CMP added
[8] = NAD^+ as extracellular precursor, competitive NPP substrate added (1 mM Ap4A), effect similar to PPADS

SMILES: NC(=O)c1ccc[n+]([C@@H]2O[C@H](CO)[C@@H](O)[C@H]2O)c1 [NR, 1-[3,4-Dihydroxy-5-(hydroxymethyl)oxolan-2-yl]pyridin-5-carboxamid]
- mitochondriale PAR-Bildung / mitochondriale NAD^+-Generierung (menschlichen Zellen [1]; [5]): unterstützt
- Zelllebensfähigkeit / Zellviabilität (menschlichen Zellen [2]; [5]): unterstützt

SMILES: NC(=O)c1ccc[n+]([C@@H]2O[C@H](COP(=O)([O-])O)[C@@H](O)[C@H]2O)c1 [NMN, Nikotinamid-Mononukleotid]
- Zell-Überleben (293mitoPARP Zellen [3]): schützen; also recorded: wiederherstellen
- mitochondrialer NAD^+-Gehalt (PAR) (293mitoPARP Zellen [4]): unterstützen; also recorded: wiederherstellen
- Überleben (HeLa S3-Zellen): schützen; also recorded: Restaurierung des Überlebens
- mitochondriale NAD^+-Bildung (HeLa S3 Zellen): unterstützen

SMILES: Cc1nc(N=Nc2ccc(S(=O)(=O)O)cc2S(=O)(=O)O)c(COP(=O)(O)O)c(C=O)c1O [PPADS]
- Wiederherstellung des mitochondrialen NAD^+-Pools (menschlichen Zellen [1]; [6]): verhindert
- Überleben der Zelle (menschlichen Zellen [2]; [6]): verhindert

SMILES: O=C([O-])c1ccc[n+]([C@@H]2O[C@H](COP(=O)(O)O)[C@@H](O)[C@H]2O)c1 [NAMN, Nikotinsäure-Mononukleotid]
- Zell-Überleben (293mitoPARP Zellen [3]): schützen; also recorded: wiederherstellen
- mitochondriale NAD^+-Generierung von NAMN (menschlichen Zellen [1]; NAMN as precursor in presence of CMP, Dipyridamol, NBTI, Fig. 4A): sensitiv gegenüber diesen Inhibitoren, wenn auch weniger stark
- mitochondrialer NAD^+-Gehalt (PAR) (293mitoPARP Zellen [4]): unterstützen; also recorded: wiederherstellen
- Überleben (HeLa S3-Zellen): schützen; also recorded: Restaurierung des Überlebens
- mitochondriale NAD^+-Bildung (HeLa S3 Zellen): unterstützen

SMILES: O=[N+]([O-])c1ccc(CSc2ncnc3c2ncn3[C@@H]2O[C@H](CO)[C@@H](O)[C@H]2O)cc1 [NBTI]
- Funktion von NMN als extrazellulärer NAD^+-Vorläufer (menschlichen Zellen [1]; Fig. 4A): verlor NMN seine Funktion
- NR-Nutzung (menschlichen Zellen [1]; Fig. 4B): hemmen

SMILES: Nc1ccn([C@@H]2O[C@H](COP(=O)(O)O)[C@@H](O)[C@H]2O)c(=O)n1 [CMP]
- Zellviabilität (293mitoPARP Zellen [3]; [7]): verringert
- Zellviabilität (HeLa S3-Zellen; [7]): verringert

SMILES: Nc1ncnc2c1ncn2[C@@H]1O[C@H](COP(=O)(O)OP(=O)(O)OP(=O)(O)OP(=O)(O)OC[C@H]2O[C@@H](n3cnc4c(N)ncnc43)[C@H](O)[C@@H]2O)[C@@H](O)[C@H]1O [Ap4A, Diadenosintetraphosphat]
- Lebensfähigkeit der Zellen (293mitoPARP Zellen [3]; [8]): ähnlichen Effekt
- Lebensfähigkeit der Zellen (HeLa S3-Zellen; [8]): ähnlichen Effekt

SMILES: O=C(/C=C/c1cccnc1)NCCCCC1CCN(C(=O)c2ccccc2)CC1 [FK866]
- Nam Nutzung (menschlichen Zellen [1]; 2 µM FK866, Fig. 3): gehemmt

SMILES: O=C(O)c1cccnc1 [NA, Nikotinsäure]
- Zell-Überleben (293mitoPARP Zellen [3]): wiederherstellen
- mitochondrialer NAD^+-Gehalt (PAR) (293mitoPARP Zellen [4]): wiederherstellen
- Überleben (HeLa S3-Zellen): Restaurierung des Überlebens

SMILES: OCCN(CCO)c1nc(N2CCCCC2)c2nc(N(CCO)CCO)nc(N3CCCCC3)c2n1 [Dipyridamol]
- Funktion von NMN als extrazellulärer NAD^+-Vorläufer (menschlichen Zellen [1]; Fig. 4A): verlor NMN seine Funktion
- NR-Nutzung (menschlichen Zellen [1]; Fig. 4B): hemmen
